Molecular target: T1, OCT1 (SLC22A1) (Homo sapiens, UniProt O15245)
T1 sequence (O15245 whole entry): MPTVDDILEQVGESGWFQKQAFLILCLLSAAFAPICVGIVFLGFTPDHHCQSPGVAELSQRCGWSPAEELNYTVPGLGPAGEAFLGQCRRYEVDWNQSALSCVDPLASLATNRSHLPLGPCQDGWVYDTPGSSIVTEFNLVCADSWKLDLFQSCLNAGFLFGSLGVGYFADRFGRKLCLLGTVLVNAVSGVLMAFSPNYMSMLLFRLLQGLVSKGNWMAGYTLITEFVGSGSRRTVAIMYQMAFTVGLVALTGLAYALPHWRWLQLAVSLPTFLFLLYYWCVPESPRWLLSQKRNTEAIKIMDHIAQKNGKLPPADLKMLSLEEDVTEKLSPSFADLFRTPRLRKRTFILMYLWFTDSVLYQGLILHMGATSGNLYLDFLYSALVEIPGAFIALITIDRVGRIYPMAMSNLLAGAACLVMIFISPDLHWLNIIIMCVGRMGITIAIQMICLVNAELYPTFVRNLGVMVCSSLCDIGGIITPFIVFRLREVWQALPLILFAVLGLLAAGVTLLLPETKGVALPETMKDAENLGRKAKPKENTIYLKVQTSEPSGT
Assay: in vitro
Conditions: HEK293 cells that express human OCT1, probe 4-(4-(dimethylamino)styryl)-N-methylpyridinium

Compared with `CN(C)C(=O)Oc1cccc([N+](C)(C)C)c1` [NEOSTIGMINE BROMIDE], `CC(=O)Oc1ccccc1C(=O)O` [ASPIRIN] is lower in inhibition at 100 µM: 19.4% for the first, -5.7% for the second.

Compared with `CN1[C@@H]2C[C@@H](OC(=O)[C@H](CO)c3ccccc3)C[C@H]1[C@@H]1O[C@@H]12` [SCOPOLAMINE], `CC(C)[N+]1(C)[C@@H]2CC[C@H]1C[C@@H](OC(=O)C(CO)c1ccccc1)C2` (stereo not given in full) is lower in inhibition at 100 µM: 43.9% for the first, 43.4% for the second.

Going from `N=C(N)c1ccc(CNC(=O)[C@@H]2CCN2C(=O)[C@H](NCC(=O)O)C2CCCCC2)cc1` to `CCOC(=O)[C@H](CCc1ccccc1)N[C@@H](C)C(=O)N1CCC[C@H]1C(=O)O`, the inhibition at 100 µM rises from -0.2% to 14.6%.

Compared with `Nc1nc2c(ncn2COCCO)c(=O)[nH]1` [ACYCLOVIR], `Nc1nc(O)c2ncn(COC(CO)CO)c2n1` [GANCICLOVIR] is higher in inhibition at 100 µM: -3.9% for the first, 10.5% for the second.

Compared with `CC(=O)[C@@]1(O)CC[C@H]2[C@@H]3C=C(Cl)C4=CC(=O)[C@@H]5C[C@@H]5[C@]4(C)[C@H]3CC[C@@]21C` [CYPROTERONE], `CCCC1O[C@@H]2C[C@H]3[C@@H]4CCC5=CC(=O)C=C[C@]5(C)[C@H]4[C@@H](O)C[C@]3(C)[C@]2(C(=O)CO)O1` (stereo not given in full) [BUDESONIDE] is lower in inhibition at 100 µM: 61.6% for the first, 38.2% for the second.

First: CC1=C(CC(=O)O)c2cc(F)ccc2/C1=C\c1ccc([S+](C)[O-])cc1 (stereo not given)
Second: O=C(O)Cc1ccccc1Nc1c(Cl)cccc1Cl [DICLOFENAC]
The inhibition at 100 µM of the first is higher: 27.1% for the first, -3.7% for the second.

Going from `CCCN(CCC)S(=O)(=O)c1ccc(C(=O)O)cc1` [PROBENECID] to `CCN(CC)CCNC(=O)c1ccc(NC(C)=O)cc1` [ACECAINIDE], the inhibition at 100 µM rises from -8.9% to 13.7%.

Going from `NCC1(CC(=O)O)CCCCC1` [GABAPENTIN] to `CCN(CC)CC#CCOC(=O)C(O)(c1ccccc1)C1CCCCC1` (stereo not given) [OXYBUTYNIN], the inhibition at 100 µM rises from 15.1% to 75.7%.

Going from `COc1ccc(CCN(C)CCCC(C#N)(c2cc(OC)c(OC)c(OC)c2)C(C)C)cc1OC` (racemic) [METHOXYVERAPAMIL] to `COc1ccc(CCN(C)CCCC(C#N)(c2ccc(OC)c(OC)c2)C(C)C)cc1OC` (stereo not given), the inhibition at 100 µM rises from 78.1% to 86.4%.

First: O=C1NC(=O)C(c2ccccc2)(c2ccccc2)N1 [PHENYTOIN]
Second: CCC1(c2ccccc2)C(=O)NC(=O)NC1=O [PHENOBARBITAL]
The inhibition at 100 µM of the first is higher: -2% for the first, -6% for the second.

First: CC[C@]1(O)C[C@@H]2CN(CCc3c([nH]c4ccccc34)[C@@](C(=O)OC)(c3cc4c(cc3OC)N(C)[C@H]3[C@@](O)(C(=O)OC)[C@H](OC(C)=O)[C@]5(CC)C=CCN6CC[C@]43[C@@H]65)C2)C1 [VINBLASTINE]
Second: CC(=O)O[C@H]1C(=O)[C@@]2(C)[C@H]([C@H](OC(=O)c3ccccc3)[C@]3(O)C[C@H](OC(=O)[C@H](O)[C@@H](NC(=O)c4ccccc4)c4ccccc4)C(C)=C1C3(C)C)[C@]1(OC(C)=O)CO[C@@H]1C[C@@H]2O [PACLITAXEL]
The inhibition at 100 µM of the first is lower: 1.9% for the first, 7.1% for the second.

First: CCOc1nc2cccc(C(=O)O)c2n1Cc1ccc(-c2ccccc2-c2nnn[nH]2)cc1
Second: O=C(O)c1cc(/N=N/c2ccc(S(=O)(=O)Nc3ccccn3)cc2)ccc1O [SULFASALAZINE]
The inhibition at 100 µM of the first is higher: 6.3% for the first, -3.7% for the second.

Compared with `Cc1cc(=O)n(-c2ccccc2)n1C` [ANTIPYRINE], `CN1C(=O)CN=C(c2ccccc2)c2cc(Cl)ccc21` [DIAZEPAM] is lower in inhibition at 100 µM: 20.7% for the first, 5% for the second.

First: CCOC(=O)N1CCC(=C2c3ccc(Cl)cc3CCc3cccnc32)CC1 [LORATADINE]
Second: CN1CCN(C2=Nc3cc(Cl)ccc3Nc3ccccc32)CC1 [CLOZAPINE]
The inhibition at 100 µM of the first is higher: 51.8% for the first, 47.5% for the second.

Going from `COC(=O)CCc1ccc(OCC(O)CNC(C)C)cc1` (stereo not given) [ESMOLOL] to `CC(C)NCC(O)c1ccc(NS(C)(=O)=O)cc1` (stereo not given) [SOTALOL], the inhibition at 100 µM rises from 31.2% to 31.8%.

First: C[C@]12CC[C@@H]3c4ccc(O)cc4CC[C@H]3[C@@H]1CC[C@@H]2O [ESTRADIOL]
Second: COc1cc2c(cc1O)CC[C@@H]1[C@@H]2CC[C@]2(C)[C@@H](O)CC[C@@H]12 [2-METHOXYESTRADIOL]
The inhibition at 100 µM of the first is higher: 83.5% for the first, 74.3% for the second.

First: CC(C)NCC(O)c1cc(O)cc(O)c1 (stereo not given) [METAPROTERENOL]
Second: CC(C)NC[C@H](O)c1ccc(O)c(O)c1
The inhibition at 100 µM of the first is lower: 12.6% for the first, 15.6% for the second.

Going from `CC(C)(C)c1ccc(C(O)CCCN2CCC(C(O)(c3ccccc3)c3ccccc3)CC2)cc1` (stereo not given) [TERFENADINE] to `CC/C(=C(\c1ccccc1)c1ccc(OCCN(C)C)cc1)c1ccccc1` [TAMOXIFEN], the inhibition at 100 µM rises from 65.4% to 72.1%.

Compared with `N[C@@H](Cc1ccc(O)c(O)c1)C(=O)O` [LEVODOPA], `N[C@@H](Cc1cc(I)c(Oc2cc(I)c(O)c(I)c2)c(I)c1)C(=O)O` [LEVOTHYROXINE] is lower in inhibition at 100 µM: 21.7% for the first, 12.7% for the second.

Compared with `CC[C@H](C)C(=O)O[C@H]1C[C@H](O)C=C2C=C[C@H](C)[C@H](CC[C@@H](O)C[C@@H](O)CC(=O)O)[C@H]21` [PRAVASTATIN], `CCC(C)(C)C(=O)O[C@H]1C[C@@H](C)C=C2C=C[C@H](C)[C@H](CC[C@@H]3C[C@@H](O)CC(=O)O3)[C@H]21` [SIMVASTATIN] is higher in inhibition at 100 µM: 5% for the first, 22.6% for the second.

Going from `CC1=C(C(=O)O)N2C(=O)[C@@H](NC(=O)[C@H](N)c3ccccc3)[C@H]2SC1` [CEPHALEXIN ANHYDROUS] to `CC(C(=O)O)c1cccc(C(=O)c2ccccc2)c1` (stereo not given) [KETOPROFEN], the inhibition at 100 µM falls from -1.9% to -9.4%.

Going from `O=C1Nc2ccc(Cl)cc2[C@@](C#CC2CC2)(C(F)(F)F)O1` [EFAVIRENZ] to `O=C1CC[C@@]2(O)[C@H]3Cc4ccc(O)c5c4[C@@]2(CCN3CC2CC2)[C@H]1O5` [NALTREXONE], the inhibition at 100 µM rises from 37% to 40.3%.

Going from `CN(C)[C@@H]1C(O)=C(C(N)=O)C(=O)[C@@]2(O)C(O)=C3C(=O)c4c(O)cccc4[C@@](C)(O)[C@H]3C[C@@H]12` [TETRACYCLINE] to `C[C@H]1c2cccc(O)c2C(=O)C2=C(O)[C@]3(O)C(=O)C(C(N)=O)=C(O)[C@@H](N(C)C)[C@@H]3[C@@H](O)[C@@H]21` [DOXYCYCLINE], the inhibition at 100 µM rises from 10.4% to 27.4%.

Compared with `COc1cc2nc(N3CCN(C(=O)C4COc5ccccc5O4)CC3)nc(N)c2cc1OC` (stereo not given) [DOXAZOSIN], `CC(=O)N1CCN(c2ccc(OCC3COC(Cn4ccnc4)(c4ccc(Cl)cc4Cl)O3)cc2)CC1` (stereo not given) [KETOCONAZOLE] is lower in inhibition at 100 µM: 85.6% for the first, 82.3% for the second.

Going from `CC(C)Cc1ccc(C(C)C(=O)O)cc1` (stereo not given) [IBUPROFEN] to `COc1cc(C(O)CN)ccc1O` (racemic) [NORMETANEPHRINE], the inhibition at 100 µM falls from 6.3% to -2.4%.

First: CN1C[C@H](C(=O)N[C@]2(C)O[C@@]3(O)[C@@H]4CCCN4C(=O)[C@H](Cc4ccccc4)N3C2=O)C=C2c3cccc4[nH]cc(c34)C[C@H]21 [ERGOTAMINE]
Second: CC(=O)CC(c1ccccc1)c1c(O)c2ccccc2oc1=O (stereo not given) [WARFARIN]
The inhibition at 100 µM of the first is higher: 16.7% for the first, 4% for the second.

Compared with `CCCC(C)(COC(N)=O)COC(=O)NC(C)C` (stereo not given) [CARISOPRODOL], `CCOC(=O)C1=C(C)NC(C)=C(C(=O)OC)C1c1cccc(Cl)c1Cl` (stereo not given) [FELODIPINE] is lower in inhibition at 100 µM: 19.8% for the first, 15.5% for the second.

First: C[C@H]1O[C@H](O[C@H]2[C@H](O)[C@@H](O)[C@@H](O[C@H]3[C@H](O)[C@@H](O)C(O)O[C@@H]3CO)O[C@@H]2CO)[C@H](O)[C@@H](O)[C@@H]1N[C@H]1C=C(CO)[C@@H](O)[C@H](O)[C@H]1O (stereo not given in full) [ACARBOSE]
Second: N[C@H]1C(O)O[C@H](CO)[C@@H](O)[C@@H]1O (stereo not given in full) [GLUCOSAMINE]
The inhibition at 100 µM of the first is lower: 3.9% for the first, 13.9% for the second.

Going from `Cc1c(C)c2c(c(C)c1O)CCC(C)(COc1ccc(CC3SC(=O)NC3=O)cc1)O2` (stereo not given) [TROGLITAZONE] to `COc1ccc(Cl)cc1C(=O)NCCc1ccc(S(=O)(=O)NC(=O)NC2CCCCC2)cc1` [GLYBURIDE], the inhibition at 100 µM falls from 48.2% to 0.3%.

Going from `CN1CC(=O)NC1=N` [CREATININE] to `Cn1c(=O)c2[nH]cnc2n(C)c1=O` [THEOPHYLLINE], the inhibition at 100 µM falls from 13.3% to -4.4%.

Compared with `CCC[C@@H]1C[C@@H](C(=O)N[C@@H]([C@H]2O[C@H](SC)[C@H](O)[C@@H](O)[C@H]2O)[C@H](C)Cl)N(C)C1` [CLINDAMYCIN], `CC[C@@H]1C(=O)OC[C@@H]1Cc1cncn1C` [PILOCARPINE] is lower in inhibition at 100 µM: 19.5% for the first, 17% for the second.

Compared with `NC(N)=NCCCCN=C(N)N` [ARCAINE], `CN(Cc1cnc2nc(N)nc(N)c2n1)c1ccc(C(=O)N[C@@H](CCC(=O)O)C(=O)O)cc1` [METHOTREXATE] is higher in inhibition at 100 µM: 4.5% for the first, 26.3% for the second.

Compared with `Clc1ccccc1C(c1ccccc1)(c1ccccc1)n1ccnc1` [CLOTRIMAZOLE], `Cc1nc2n(c(=O)c1CCN1CCC(c3noc4cc(F)ccc34)CC1)CCCC2` [RISPERIDONE] is lower in inhibition at 100 µM: 69.3% for the first, 39.3% for the second.

Going from `Cc1cn([C@H]2C[C@H](N=[N+]=[N-])[C@@H](CO)O2)c(=O)[nH]c1=O` [ZIDOVUDINE] to `O=C1CC2(CCCC2)CC(=O)N1CCCCN1CCN(c2ncccn2)CC1` [BUSPIRONE], the inhibition at 100 µM rises from 4.7% to 24.7%.

Same assay, conditions: hek293

Going from `CN/C(=N/CCSCc1nc[nH]c1C)NC#N` [CIMETIDINE] to `NC(N)=Nc1nc(CSCCC(N)=NS(N)(=O)=O)cs1` [FAMOTIDINE], the inhibition at 100 µM rises from 8.1% to 13.9%.

Compared with `CNC[C@H](O)c1ccc(O)c(O)c1` [EPINEPHRINE], `CC(C)c1cccc(C(C)C)c1O` [PROPOFOL] is lower in inhibition at 100 µM: 29.1% for the first, -17.9% for the second.

Going from `NCCc1c[nH]cn1` [HISTAMINE] to `COc1cc(Cc2cnc(N)nc2N)cc(OC)c1OC` [TRIMETHOPRIM], the inhibition at 100 µM rises from 4.1% to 58.1%.

Molecule `O=P1(N(CCCl)CCCl)NCCCO1` (stereo not given) [CYCLOPHOSPHAMIDE ANHYDROUS] has an inhibition at 100 µM of 4.7%.

— ChEMBL document CHEMBL1140113, “Structural requirements for drug inhibition of the liver specific human organic cation transport protein 1” (J Med Chem, 2008)
